Data as given in ChEMBL document CHEMBL2169754, “Imidazo[1,2-a]pyridines That Directly Interact with Hepatitis C NS4B: Initial Preclinical Characterization” (ACS Med Chem Lett, 2012).
One block for each compound: values may come before it.

What was measured:
Hepatitis C virus [1] = assay: Antiviral activity against wild type HCV genotype 1a infected in human HuH7 cells after 48 hrs by luciferase reporter gene assay; format: functional, organism-based, Hepacivirus hominis; details: subtype 1a, Huh-7, 48 h
Hepatitis C virus [2] = assay: Displacement of [3H]-3-(1-(3-chloro-6-isopropyl-8-(trifluoromethyl)imidazo[1,2-a]pyridine-2-carbonyl)piperidin-4-yl)oxazolidin-2-one from HCV genotype 1b His6-tagged NS4B expressed in baculovirus infected Sf9 cells after overnight incubation; parameters: species or system Hepatitis C virus subtype 1b
Hepatitis C virus [3] = assay: Antiviral activity against wild type HCV genotype 1b infected in human HuH7 cells after 48 hrs by luciferase reporter gene assay; format: functional, organism-based, Hepacivirus hominis; details: Huh-7, 48 h
[4] = Solubility of the compound; format: physicochemical
[5] = Oral bioavailability in Sprague-Dawley rat at 5 mg/kg; format: ADME, organism-based; details: in vivo
[6] = Volume of distribution at steady state in Sprague-Dawley rat at 1 mg/kg, iv; format: ADME, organism-based; parameters: dose 1 mg/kg, route intravenous; details: in vivo, read-out: Vdss
[7] = Half life in Sprague-Dawley rat at 5 mg/kg, po; format: ADME, organism-based; parameters: dose 5 mg/kg, route oral; details: in vivo
[8] = AUC (0 to 24 hrs) in Sprague-Dawley rat at 5 mg/kg, po; format: ADME, organism-based; parameters: time < 24 hr, dose 5 mg/kg, route oral; details: plasma
[9] = Clearance in Sprague-Dawley rat at 1 mg/kg, iv; format: ADME, organism-based; parameters: dose 1 mg/kg, route intravenous; details: in vivo
Cytochrome P450 2D6 = Cytochrome P450 2D6 (Homo sapiens, UniProt P10635); assay: Inhibition of CYP2D6 in human liver microsomes after 10 mins by LC/MS/MS analysis; format: ADME, Microsome
Cytochrome P450 3A4 = Cytochrome P450 3A4 (Homo sapiens, UniProt P08684); assay: Inhibition of CYP3A4 in human liver microsomes after 7 mins by LC/MS/MS analysis; format: ADME, Microsome
Cytochrome P450 1A2 = target: T1, Cytochrome P450 1A2 (Homo sapiens, UniProt P05177); assay: Inhibition of CYP1A2 in human liver microsomes after 10 mins by LC/MS/MS analysis; format: ADME, Microsome
T1 sequence (P05177 whole entry): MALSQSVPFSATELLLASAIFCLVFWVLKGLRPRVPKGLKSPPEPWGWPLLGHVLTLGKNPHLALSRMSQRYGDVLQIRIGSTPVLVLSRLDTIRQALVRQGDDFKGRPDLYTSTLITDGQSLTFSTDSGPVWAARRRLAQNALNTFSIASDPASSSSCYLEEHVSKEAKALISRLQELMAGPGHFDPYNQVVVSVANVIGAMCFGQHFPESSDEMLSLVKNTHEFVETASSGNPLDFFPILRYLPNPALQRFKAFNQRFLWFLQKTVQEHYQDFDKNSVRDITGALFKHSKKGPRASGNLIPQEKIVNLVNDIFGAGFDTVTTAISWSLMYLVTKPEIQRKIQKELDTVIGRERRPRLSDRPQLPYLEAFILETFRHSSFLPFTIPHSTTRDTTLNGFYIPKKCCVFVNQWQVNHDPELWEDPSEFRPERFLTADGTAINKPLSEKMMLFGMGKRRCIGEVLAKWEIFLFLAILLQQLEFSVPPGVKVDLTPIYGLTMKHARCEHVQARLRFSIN

Liver microsomes [10] = assay: Drug metabolism in human liver microsomes assessed as reactive metabolite formation at 10 uM after 30 mins by glutathione trapping assay; format: ADME, Microsome; details: 0.5 h
Liver microsomes [11] = assay: Drug metabolism in rat liver microsomes assessed as reactive metabolite formation at 10 uM after 30 mins by glutathione trapping assay; format: ADME, Microsome; details: 0.5 h
Cytochrome P450 2C9 = Cytochrome P450 2C9 (Homo sapiens, UniProt P11712); assay: Inhibition of CYP2C9 in human liver microsomes after 10 mins by LC/MS/MS analysis; format: ADME, Microsome
Cytochrome P450 2C19 = Cytochrome P450 2C19 (Homo sapiens, UniProt P33261); assay: Inhibition of CYP2C19 in human liver microsomes after 10 mins by LC/MS/MS analysis; format: ADME, Microsome
Hepatitis C virus [12] = assay: Binding affinity to HCV genotype 1b His6-tagged NS4B expressed in baculovirus infected Sf9 cells after overnight incubation; details: Hepatitis C virus subtype 1b, tested as the 3H-labelled form
Hepatitis C virus [13] = assay: Antiviral activity against HCV genotype 1b expressing NS5B M414T mutant transiently infected in human HuH7 cells after 48 hrs by luciferase reporter gene assay; format: functional, organism-based, Hepacivirus hominis; details: Huh-7, 48 h
[14] = Clearance in beagle dog at 1 mg/kg, iv; format: ADME, organism-based, Canis lupus familiaris; parameters: dose 1 mg/kg, route intravenous; details: in vivo
Hepatitis C virus [15] = assay: Antiviral activity against HCV genotype 1b expressing NS4B V105M mutant stably infected in human HuH7 cells after 48 hrs by luciferase reporter gene assay; format: functional, organism-based, Hepacivirus hominis; details: Huh-7, 48 h
[16] = Volume of distribution at steady state in beagle dog at 1 mg/kg, iv; format: ADME, organism-based, Canis lupus familiaris; parameters: dose 1 mg/kg, route intravenous; details: in vivo, read-out: Vdss
Hepatitis C virus [17] = assay: Antiviral activity against HCV genotype 1b expressing NS4B H94N mutant stably infected in human HuH7 cells after 48 hrs by luciferase reporter gene assay; format: functional, organism-based, Hepacivirus hominis; details: Huh-7, 48 h
Hepatitis C virus [18] = assay: Antiviral activity against HCV genotype 1b expressing NS4B F98L mutant transiently infected in human HuH7 cells after 48 hrs by luciferase reporter gene assay; format: functional, organism-based, Hepacivirus hominis; details: Huh-7, 48 h
Hepatitis C virus [19] = assay: Ratio of EC50 for HCV genotype 1b expressing NS4B V105N mutant to EC50 for wild type HCV genotype 1b; format: functional, Hepacivirus hominis
[20] = Half life in beagle dog at 5 mg/kg, po; format: ADME, organism-based, Canis lupus familiaris; parameters: dose 5 mg/kg, route oral; details: in vivo
Hepatitis C virus [21] = assay: Antiviral activity against HCV genotype 1b expressing NS3 A156T mutant transiently infected in human HuH7 cells after 48 hrs by luciferase reporter gene assay; format: functional, organism-based, Hepacivirus hominis; details: Huh-7, 48 h
Hepatitis C virus [22] = assay: Antiviral activity against HCV genotype 1b expressing NS4B V105L mutant transiently infected in human HuH7 cells after 48 hrs by luciferase reporter gene assay; format: functional, organism-based, Hepacivirus hominis; details: Huh-7, 48 h
[23] = AUC (0 to 24 hrs) in beagle dog at 5 mg/kg, po; format: ADME, organism-based, Canis lupus familiaris; parameters: time < 24 hr, dose 5 mg/kg, route oral; details: plasma
[24] = Oral bioavailability in beagle dog at 5 mg/kg; format: ADME, organism-based, Canis lupus familiaris; details: in vivo
Hepatitis C virus [25] = assay: Ratio of EC50 for HCV genotype 1b expressing NS4B H94N mutant to EC50 for wild type HCV genotype 1b; format: functional, Hepacivirus hominis
Hepatitis C virus [26] = assay: Antiviral activity against HCV genotype 1b expressing NS4B H94R mutant transiently infected in human HuH7 cells after 48 hrs by luciferase reporter gene assay; format: functional, organism-based, Hepacivirus hominis; details: Huh-7, 48 h
Hepatitis C virus [27] = assay: Antiviral activity against HCV genotype 1b expressing NS5A L31V mutant transiently infected in human HuH7 cells after 48 hrs by luciferase reporter gene assay; format: functional, organism-based, Hepacivirus hominis; details: Huh-7, 48 h

Cytochrome P450 2C19, sequence (P33261 whole entry): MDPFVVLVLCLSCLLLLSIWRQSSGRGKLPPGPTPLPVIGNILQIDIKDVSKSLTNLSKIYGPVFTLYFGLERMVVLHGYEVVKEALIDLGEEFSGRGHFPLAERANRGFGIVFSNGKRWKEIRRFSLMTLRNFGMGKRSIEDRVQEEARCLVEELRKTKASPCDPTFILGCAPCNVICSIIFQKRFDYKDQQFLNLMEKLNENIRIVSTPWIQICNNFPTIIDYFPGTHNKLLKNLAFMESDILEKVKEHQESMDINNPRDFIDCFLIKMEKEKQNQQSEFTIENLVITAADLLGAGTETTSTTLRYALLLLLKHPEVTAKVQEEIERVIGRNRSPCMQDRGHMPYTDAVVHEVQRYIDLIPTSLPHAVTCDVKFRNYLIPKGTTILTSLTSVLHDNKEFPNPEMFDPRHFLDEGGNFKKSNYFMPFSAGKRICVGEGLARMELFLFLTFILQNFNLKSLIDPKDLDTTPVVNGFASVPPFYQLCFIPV
Cytochrome P450 3A4, sequence (P08684 whole entry): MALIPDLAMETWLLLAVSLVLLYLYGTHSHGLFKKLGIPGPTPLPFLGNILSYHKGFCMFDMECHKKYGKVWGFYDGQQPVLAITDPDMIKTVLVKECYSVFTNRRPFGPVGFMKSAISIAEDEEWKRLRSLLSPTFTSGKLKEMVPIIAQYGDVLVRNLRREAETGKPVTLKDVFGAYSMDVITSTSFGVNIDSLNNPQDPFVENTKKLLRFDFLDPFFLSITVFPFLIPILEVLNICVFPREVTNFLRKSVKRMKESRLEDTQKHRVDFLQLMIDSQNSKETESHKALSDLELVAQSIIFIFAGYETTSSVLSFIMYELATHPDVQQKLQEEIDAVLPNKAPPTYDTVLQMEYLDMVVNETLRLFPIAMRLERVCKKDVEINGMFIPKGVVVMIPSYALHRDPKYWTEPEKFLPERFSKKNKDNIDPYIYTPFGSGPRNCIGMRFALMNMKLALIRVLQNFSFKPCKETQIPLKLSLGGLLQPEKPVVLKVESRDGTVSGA
Cytochrome P450 2D6, sequence (P10635 whole entry): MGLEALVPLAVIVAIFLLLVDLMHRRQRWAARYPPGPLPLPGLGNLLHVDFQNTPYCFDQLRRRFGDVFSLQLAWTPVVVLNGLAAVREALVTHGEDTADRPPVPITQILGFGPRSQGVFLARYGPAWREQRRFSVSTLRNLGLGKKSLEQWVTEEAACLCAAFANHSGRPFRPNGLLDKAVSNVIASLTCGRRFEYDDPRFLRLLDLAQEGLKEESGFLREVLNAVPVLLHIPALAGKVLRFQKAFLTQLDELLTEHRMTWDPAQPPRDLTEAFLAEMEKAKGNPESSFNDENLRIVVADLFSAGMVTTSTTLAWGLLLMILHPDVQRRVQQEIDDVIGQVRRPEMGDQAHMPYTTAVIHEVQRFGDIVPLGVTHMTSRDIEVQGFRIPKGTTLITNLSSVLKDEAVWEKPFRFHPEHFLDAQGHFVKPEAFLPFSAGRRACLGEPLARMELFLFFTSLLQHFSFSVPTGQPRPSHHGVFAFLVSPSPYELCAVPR
Cytochrome P450 2C9, sequence (P11712 whole entry): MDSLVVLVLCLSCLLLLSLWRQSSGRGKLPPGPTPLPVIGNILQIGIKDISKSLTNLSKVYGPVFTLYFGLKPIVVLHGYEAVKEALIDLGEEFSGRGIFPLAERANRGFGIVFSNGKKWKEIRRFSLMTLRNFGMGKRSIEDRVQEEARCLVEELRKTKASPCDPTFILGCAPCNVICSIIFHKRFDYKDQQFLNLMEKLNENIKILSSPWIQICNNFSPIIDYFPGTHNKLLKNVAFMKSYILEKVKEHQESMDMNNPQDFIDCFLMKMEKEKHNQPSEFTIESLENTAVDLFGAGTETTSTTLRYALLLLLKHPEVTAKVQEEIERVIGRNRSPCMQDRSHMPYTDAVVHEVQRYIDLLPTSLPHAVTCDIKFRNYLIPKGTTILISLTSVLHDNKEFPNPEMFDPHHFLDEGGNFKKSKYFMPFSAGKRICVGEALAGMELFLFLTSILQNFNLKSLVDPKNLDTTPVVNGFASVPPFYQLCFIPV

EC50 (Hepatitis C virus [1]): 150 nM
IC50 (Hepatitis C virus [2]): 250 nM
EC50 (Hepatitis C virus [3]): 300 nM
solubility [4]: > 500 µM
SMILES: O=C(c1nc2c(C(F)(F)F)cc(-c3ccoc3)cn2c1Cl)N1CCN([C@H]2CC[C@@H](O)CC2)C(=O)C1

EC50 (Hepatitis C virus [1]): 9900 nM
IC50 (Hepatitis C virus [2]): 220 nM
EC50 (Hepatitis C virus [3]): 76000 nM
solubility [4]: > 500 µM
SMILES: CC1(C)CN(C2CCN(C(=O)c3nc4c(C(F)(F)F)cc(-c5ccoc5)cn4c3Cl)CC2)C(=O)O1

bioavailability [5]: 60%
Vd [6]: 3.1 L/kg
EC50 (Hepatitis C virus [1]): 20 nM
half-life [7]: 3 h
IC50 (Hepatitis C virus [2]): 35 nM
AUC(0-t) at 24 h [8]: 1100 ng·h/mL
EC50 (Hepatitis C virus [3]): 51 nM
clearance [9]: 46 mL/min/kg
solubility [4]: > 500 µM
SMILES: O=C(c1nc2c(C(F)(F)F)cc(-c3ccoc3)cn2c1Cl)N1CCC(N2C(=O)COC2=O)CC1

inhibition (INH) (Cytochrome P450 2D6): Not Active
bioavailability [5]: 60%
Vd [6]: 2.5 L/kg
inhibition (INH) (Cytochrome P450 3A4): Not Active
EC50 (Hepatitis C virus [1]): 7.4 nM
inhibition (INH) (Cytochrome P450 1A2): Not Active
half-life [7]: 1.9 h
Drug metabolism (Liver microsomes [10]): Not Active
IC50 (Hepatitis C virus [2]): 150 nM
AUC(0-t) at 24 h [8]: 700 ng·h/mL
Drug metabolism (Liver microsomes [11]): Not Active
inhibition (INH) (Cytochrome P450 2C9): Not Active
EC50 (Hepatitis C virus [3]): 18 nM
clearance [9]: 72 mL/min/kg
inhibition (INH) (Cytochrome P450 2C19): Not Active
solubility [4]: > 500 µM
SMILES: O=C(c1nc2c(C(F)(F)F)cc(-c3ccoc3)cn2c1Cl)N1CCC(N2CCOC2=O)CC1

EC50 (Hepatitis C virus [1]): 430 nM
IC50 (Hepatitis C virus [2]): 24 nM
EC50 (Hepatitis C virus [3]): 160 nM
SMILES: O=C(c1nc2c(C(F)(F)F)cc(-c3ccoc3)cn2c1Cl)N1CCN(c2ccccc2)C(=O)C1

EC50 (Hepatitis C virus [1]): 220 nM
IC50 (Hepatitis C virus [2]): 5.3 nM
EC50 (Hepatitis C virus [3]): 110 nM
SMILES: O=C(c1nc2c(C(F)(F)F)cc(-c3ccoc3)cn2c1Cl)N1CCC(c2cccs2)CC1

EC50 (Hepatitis C virus [1]): 680 nM
IC50 (Hepatitis C virus [2]): 5.4 nM
EC50 (Hepatitis C virus [3]): 78 nM
solubility [4]: < 15 µM
SMILES: O=C(c1nc2c(C(F)(F)F)cc(-c3ccoc3)cn2c1Cl)N1CCC(c2ccccc2F)C1 (racemic)

EC50 (Hepatitis C virus [1]): 740 nM
IC50 (Hepatitis C virus [2]): 22 nM
EC50 (Hepatitis C virus [3]): 450 nM
SMILES: O=C(NCc1cccs1)c1cc2nc(-c3ccco3)cc(C(F)(F)Cl)n2n1 [ANGUIZOLE]

EC50 (Hepatitis C virus [1]): < 55 nM
EC50 (Hepatitis C virus [3]): < 55 nM
SMILES: CC(C)c1cc(C(F)(F)F)c2nc(C(=O)N3CCC(N4CCOC4=O)CC3)c(Cl)n2c1
Kapp (Hepatitis C virus [12]): 30 nM

SMILES: O=C(c1nc2c(C(F)(F)F)cc(C3CC3)cn2c1Cl)N1CCN([C@H]2CC[C@H](O)CC2)C(=O)C1
EC50 (Hepatitis C virus [13]): 1 nM
inhibition (INH) (Cytochrome P450 2D6): Not Active
clearance [14]: 1.1 mL/min/kg
bioavailability [5]: 98%
Vd [6]: 4.1 L/kg
inhibition (INH) (Cytochrome P450 3A4): Not Active
EC50 (Hepatitis C virus [1]): 0.81 nM
EC50 (Hepatitis C virus [15]): 800 nM
Vd [16]: 0.9 L/kg
inhibition (INH) (Cytochrome P450 1A2): Not Active
half-life [7]: 3 h
Drug metabolism (Liver microsomes [10]): Not Active
EC50 (Hepatitis C virus [17]): 200 nM
EC50 (Hepatitis C virus [18]): 27 nM
Ratio EC50 (Hepatitis C virus [19]): >100
IC50 (Hepatitis C virus [2]): 60 nM
half-life [20]: 10 h
AUC(0-t) at 24 h [8]: 3800 ng·h/mL
Drug metabolism (Liver microsomes [11]): Not Active
EC50 (Hepatitis C virus [21]): 1 nM
EC50 (Hepatitis C virus [22]): 38 nM
AUC(0-t) at 24 h [23]: 52000 ng·h/mL
inhibition (INH) (Cytochrome P450 2C9): Not Active
EC50 (Hepatitis C virus [3]): 5.4 nM
clearance [9]: 20 mL/min/kg
bioavailability [24]: 65%
inhibition (INH) (Cytochrome P450 2C19): Not Active
Ratio EC50 (Hepatitis C virus [25]): >100
solubility [4]: > 500 µM
EC50 (Hepatitis C virus [26]): 53 nM
EC50 (Hepatitis C virus [27]): 1 nM

EC50 (Hepatitis C virus [1]): < 55 nM
EC50 (Hepatitis C virus [3]): < 55 nM
SMILES: O=C(c1nc2c(C(F)(F)F)cc(-c3cn[nH]c3)cn2c1Br)N1CCC(c2cccs2)C1 (stereo not drawn)
Kapp (Hepatitis C virus [12]): 76 nM
